The values below are quoted from earlier work in EP1214078B1, “FORMULATIONS FOR PARENTERAL USE OF ES[…] AND AMINO ACIDS” (priority 1999, dated 2001).

For the data set the following is noted: patients, slow intravenous injection or bolus, 300 mg/day.

In the case of `C[C@]12CC[C@@H]3c4ccc(OC(=O)N(CCCl)CCCl)cc4CC[C@H]3[C@@H]1CC[C@@H]2OP(=O)(O)O` [estramustine phosphate, Estramustine phosphate], the “side effects at the peripheral intravenous injection sites” value was “thrombophlebitis and local irritations”.
